Test system: hepatic function and portal-systemic shunting in subjects with CLD
Assay: HepQuant SHUNT test (DSI and SHUNT %) relative to concomitant drug therapy in the SHUNT-V clinical study
Assay type: in vivo, human
Settings: for Coefficient (Δ DSI score): multi-variable regression analysis of prescribed medications, Base DSI 27.0682; for ΔDSI: univariable regression analysis, 270 SHUNT-V subjects with CLD, on drug vs not on drug, lower DSI = better hepatic function
Excerpt: For example, a HepQuant® cholate liver function test (HepQuant, LLC) can be used to determine the presence and severity of liver diseases. A HepQuant® test can be a HepQuant® DSI test, HepQuant® SHUNT test or a HepQuant® STAT test. […] The term “SHUNT test” refers to a previously disclosed QLFT (quantitative liver function test) used as a comprehensive assessment of hepatic blood flow and liver function. The SHUNT test may be used to determine plasma clearance of orally and intravenously administered distinguishable cholic acids in subjects with and without chronic liver disease. SHUNT fraction or percent quantifies the spillover of the PO d4-cholate into the systemic circulation from the ratio of the clearance of the intravenously administered 13C-cholate to the clearance of the orally administered d4-cholate. In the SHUNT test, at least 5 blood samples are analyzed which have been drawn from a patient at intervals over a period of about 90 minutes after oral and intravenous administration of differentiable cholates. The SHUNT test is disclosed in Everson et al., U.S. Pat. […] The “SHUNT test value” refers to a number (in %). The term “SHUNT %” represents a quantitative measurement of portal-systemic shunting. SHUNT % is a measurement of the percentage of spillover of the orally administered d4-cholate. The first-pass hepatic elimination of cholate in percent of orally administered cholate is defined as (100%—SHUNT). Analysis of samples for stable isotopically labeled cholates is performed by, e.g., GC-MS, following sample derivitization, or LC-MS, without sample derivitization, or LC-MS/MS, or MS/MS. The ratio of the AUCs of orally to intravenously administered cholic acid, corrected for administered doses, defines cholate shunt. The cholate shunt can be calculated using the formula: AUCoral/AUCiv×Doseiv/Doseoral×100%, wherein AUCoral is the area under the curve of the serum concentrations of the orally adminstered cholic acid and AUCiv is the area under the curve of the intravenously administered cholic acid. The SHUNT test allows measurement of first-pass hepatic elimination of bile acids from the portal circulation. The term “DSI test” refers to a cholate Disease Severity Index test which is derived from one or more liver function test results based on hepatic blood flow. The DSI score is a function of the sum of cholate clearances from systemic and portal circulations adjusted to disease severity ranging from healthy subjects to end stage liver disease. DSI is a score without units representing a quantitative measurement of liver function. A disease severity index (DSI) value may be obtained in a patient by a method comprising (a) obtaining one or more liver function test values in a patient having or at risk of a chronic liver disease, wherein the one or more liver function test values are obtained from one or more liver function tests selected from the group consisting of SHUNT, portal hepatic filtration rate (portal HFR), and systemic hepatic filtration rate (systemic HFR); and (b) employing a disease severity index equation (DSI equation) to obtain a DSI value in the patient, wherein the DSI equation comprises one or more terms and a constant to obtain the DSI value, wherein at least one term of the DSI equation independently represents a liver function test value in the patient, or a mathematically transformed liver function test value in the patient from step; and the at least one term of the DSI equation is multiplied by a coefficient specific to the liver function test. DSI is an index, or score, that encompasses the cholate clearances from both systemic and portal circulations. DSI has a range from 0 (healthy) to 50 (severe end-stage disease) and is calculated from both HFRs. […] DSI test methods and equations are disclosed in U.S. Pat. Nos. 9,091,701, 9,759,731, 10,520,517, each of which is incorporated herein by reference in its entirety. Additional DSI equations have been developed and are provided herein.

[1] = ON-OFF drug, subset of 130 subjects taking anti-diabetic drug therapies (Table 6, FIG. 18)
[2] = multi-variable regression with statins, metformin, diabetes diagnosis and NASH diagnosis

Row | Molecule | mean difference in DSI [1] | mean difference in SHUNT [1] [%] | Coefficient (Δ DSI score) | Decline in DSI [2] | Decline in SHUNT % [2] [%] | Resultant DSI (multi-variable regression, Base DSI 27.0682 plus coefficients, cumulative down the table (metformin line includes the statin coefficient)) | % Reduction in DSI (multi-variable regression, relative to Base DSI 27.0682, cumulative down the table (metformin line includes statins)) [%] | ΔDSI
1 | CN(C)C(=N)N=C(N)N [Metformin, metformin] | −2.4 | −7.4 | −2.2637 | −2.4337 | −5.9 | 21.55 | −20.4 | −4.1777
2 | CCc1ccc(CCOc2ccc(CC3SC(=O)NC3=O)cc2)nc1 (centres unmarked) [Pioglitazone] |  |  | 0.2725 |  |  |  |  | −2.4995
3 | Insulin: insulin, anti-diabetic drug therapy |  |  | −0.7947 |  |  |  |  | −2.746
4 | Vitamin E |  |  | −1.6505 |  |  |  |  | −2.0475
